SMILES strings stand for the structures.

The assay deals with T1, SMYD3 (Homo sapiens, UniProt Q9H7B4).
T1 sequence (Q9H7B4 1-428): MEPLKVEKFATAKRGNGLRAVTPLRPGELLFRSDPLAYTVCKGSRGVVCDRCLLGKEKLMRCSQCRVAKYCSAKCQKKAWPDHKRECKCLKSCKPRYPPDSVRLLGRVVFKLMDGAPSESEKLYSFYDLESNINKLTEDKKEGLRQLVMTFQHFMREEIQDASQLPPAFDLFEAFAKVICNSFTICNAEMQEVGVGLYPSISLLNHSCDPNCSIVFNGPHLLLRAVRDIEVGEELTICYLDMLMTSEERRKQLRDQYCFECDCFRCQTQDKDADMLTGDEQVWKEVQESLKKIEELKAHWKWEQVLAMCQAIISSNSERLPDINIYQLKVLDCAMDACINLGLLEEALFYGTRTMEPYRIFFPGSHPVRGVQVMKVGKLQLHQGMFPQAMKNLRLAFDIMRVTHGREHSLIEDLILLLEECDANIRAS
The experiment in a line: SMYD3 biochemical assay (MTase-Glo, MAP3K2 peptide substrate). The settings on record: Table 3; MTase assay, MAP3K2 peptide substrate; read-out: IC50. A digest of the protocol: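 Luminescent readout of SAH production (coupled SAH→ATP conversion, MTase-Glo) after SMYD3 reacted 30 min at room temperature with 1.0 µM SAM and 10 µM MAP3K2 peptide, both final. Non-linear regression gave IC50 values.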
In the case of `CCCOC(=O)N1CCN(C(=O)c2ccc3c(Cl)cc(-c4cscn4)nc3c2)CC1` [B153, Propyl 4-(4-chloro-2-(thiazol-4-yl)quinoline-7-carbonyl)piperazine-1-carboxylate], the IC50 (as a rule, the concentration needed to halve the response being measured) turned out to be 1130 nM.
In the case of `CCCOC(=O)N1CCN(C(=O)c2ccc3c(Cl)cc(-c4ccc(F)c(C(=O)N(C)C)c4)nc3c2)CC1` [B154, Propyl 4-(4-chloro-2-(3-(dimethylcarbamoyl)-4-fluorophenyl)quinoline-7-carbonyl)piperazine-1-carboxylate] it was 2290 nM; in that of `CCCOC(=O)N1CCN(C(=O)c2ccc3c(Cl)cc(-c4ccc5c(cnn5C)c4)nc3c2)CC1C` (centres unmarked) [B155, Propyl 4-(4-chloro-2-(1-methyl-1H-indazol-5-yl)quinoline-7-carbonyl)-2-methylpiperazine-1-carboxylate], 180 nM.
The value for `CCCOC(=O)N1CCN(C(=O)c2ccc3c(Cl)cc(-c4ccc(F)c(O)c4)nc3c2)CC1` [B157, Propyl 4-(4-chloro-2-(4-fluoro-3-hydroxyphenyl)quinoline-7-carbonyl)piperazine-1-carboxylate] was 360 nM; that for `CCCOC(=O)N1CCN(C(=O)c2ccc3c(Cl)cc(-c4cccc(C(C)O)c4)nc3c2)CC1` (centres unmarked) [B158, Propyl 4-(4-chloro-2-(3-(1-hydroxyethyl)phenyl)quinoline-7-carbonyl)piperazine-1-carboxylate] was 84 nM; that for `CCCOC(=O)N1CCN(C(=O)c2ccc3c(Cl)cc(-c4ccc(C)c(CO)c4)nc3c2)CC1` [B159, Propyl 4-(4-chloro-2-(3-(hydroxymethyl)-4-methylphenyl)quinoline-7-carbonyl)piperazine-1-carboxylate] was 120 nM.
The value for `CCCOC(=O)N1CCN(C(=O)c2ccc3c(Cl)cc(-c4ccc(O)cc4)nc3c2)[C@@H](C)C1` [B160, Propyl (S)-4-(4-chloro-2-(4-hydroxyphenyl)quinoline-7-carbonyl)-3-methylpiperazine-1-carboxylate] was 150 nM.
For the compound `CCCOC(=O)N1CCN(C(=O)c2ccc3c(Cl)cc(-c4ccc(CF)cc4)nc3c2)[C@@H](C)C1` [B161, Propyl (S)-4-(4-chloro-2-(4-(fluoromethyl)phenyl)quinoline-7-carbonyl)-3-methylpiperazine-1-carboxylate], the IC50 stood at 330 nM.
As for `CCCOC(=O)N1CCN(C(=O)c2ccc3c(Cl)cc(-c4ccc(O)c(F)c4)nc3c2)[C@@H](C)C1` [B162, Propyl (S)-4-(4-chloro-2-(3-fluoro-4-hydroxyphenyl)quinoline-7-carbonyl)-3-methylpiperazine-1-carboxylate], the half-maximal inhibitory concentration (IC50) was 200 nM.
In the case of `CCCOC(=O)N1CCN(C(=O)c2ccc3c(Cl)cc(-c4ccc5c(c4)OCO5)nc3c2)CC1` [B163, Propyl 4-(2-(benzo[d][1,3]dioxol-5-yl)-4-chloroquinoline-7-carbonyl)piperazine-1-carboxylate] it was 120 nM.
For the compound `CCCOC(=O)N1CCN(C(=O)c2ccc3c(Cl)cc(-c4ccc5nn[nH]c5c4)nc3c2)CC1` [B164, Propyl 4-(2-(1H-benzo[d][1,2,3]triazol-6-yl)-4-chloroquinoline-7-carbonyl)piperazine-1-carboxylate], the IC50 came to 360 nM.
The value for `CCCOC(=O)N1CCN(C(=O)c2ccc3c(Cl)cc(-c4ccc(OC)c(F)c4)nc3c2)CC1` [B165, Propyl 4-(4-chloro-2-(3-fluoro-4-methoxyphenyl)quinoline-7-carbonyl)piperazine-1-carboxylate] was 150 nM; that for `CCCOC(=O)N1CCN(C(=O)c2ccc3c(Cl)cc(-c4cnc(C)s4)nc3c2)CC1` [B166, Propyl 4-(4-chloro-2-(2-methylthiazol-5-yl)quinoline-7-carbonyl)piperazine-1-carboxylate] was 3670 nM; that for `CCCOC(=O)N1CCN(C(=O)c2ccc3c(Cl)cc(-c4ccc(F)c(CN(C)C)c4)nc3c2)CC1` [B167] was 660 nM.
The value for `CCCOC(=O)N1CCN(C(=O)c2ccc3c(Cl)cc(-c4ccn(C)n4)nc3c2)CC1` [B168, Propyl 4-(4-chloro-2-(1-methyl-1H-pyrazol-3-yl)quinoline-7-carbonyl)piperazine-1-carboxylate] was 1750 nM; that for `CCCOC(=O)N1CCN(C(=O)c2ccc3c(Cl)cc(-c4ccc5[nH]ncc5c4)nc3c2)C[C@@H]1C` [B169, Propyl (S)-4-(4-chloro-2-(1H-indazol-5-yl)quinoline-7-carbonyl)-2-methylpiperazine-1-carboxylate] was 150 nM; that for `CCCOC(=O)N1CCN(C(=O)c2ccc3c(Cl)cc(-c4ccc5nn(C)cc5c4)nc3c2)C[C@@H]1C` [B170, Propyl (S)-4-(4-chloro-2-(2-methyl-2H-indazol-5-yl)quinoline-7-carbonyl)-2-methylpiperazine-1-carboxylate] was 260 nM.
The value for `CCCOC(=O)N1CCN(C(=O)c2ccc3c(Cl)cc(-c4ccc(OC)c(CO)c4)nc3c2)C[C@@H]1C` [B171, Propyl (S)-4-(4-chloro-2-(3-(hydroxymethyl)-4-methoxyphenyl)quinoline-7-carbonyl)-2-methylpiperazine-1-carboxylate] was 150 nM; that for `CCCOC(=O)N1CCN(C(=O)c2ccc3c(Cl)cc(-c4ccc(F)c(CN)c4)nc3c2)CC1` [B172, Propyl 4-(2-(3-(aminomethyl)-4-fluorophenyl)-4-chloroquinoline-7-carbonyl)piperazine-1-carboxylate] was 39 nM; that for `CCCOC(=O)N1CCN(C(=O)c2ccc3c(Cl)cc(-c4cnc5[nH]nc(C)c5c4)nc3c2)CC1` [B173, Propyl 4-(4-chloro-2-(3-methyl-1H-pyrazolo[3,4-b]pyridin-5-yl)quinoline-7-carbonyl)piperazine-1-carboxylate] was 2500 nM.
With `CCCOC(=O)N1CCN(C(=O)c2ccc3c(Cl)cc(-c4cnc5c(cnn5C)c4)nc3c2)CC1` [B174, Propyl 4-(4-chloro-2-(1-methyl-1H-pyrazolo[3,4-b]pyridin-5-yl)quinoline-7-carbonyl)piperazine-1-carboxylate], the concentration for half-maximal inhibition (IC50) was determined as 470 nM.
The value for `CCCOC(=O)N1CCN(C(=O)c2ccc3c(Cl)cc(-c4cnc5[nH]c(C)cc5c4)nc3c2)CC1` [B175, Propyl 4-(4-chloro-2-(2-methyl-1H-pyrrolo[2,3-b]pyridin-5-yl)quinoline-7-carbonyl)piperazine-1-carboxylate] was 400 nM; that for `CCCOC(=O)N1CCN(C(=O)c2ccc3c(Cl)cc(-c4ccc5[nH]nc(C)c5c4)nc3c2)CC1` [B176, Propyl 4-(4-chloro-2-(3-methyl-1H-indazol-5-yl)quinoline-7-carbonyl)piperazine-1-carboxylate] was 490 nM; that for `CCCOC(=O)N1CCN(C(=O)c2ccc3c(Cl)cc(-c4ccc(C)nc4)nc3c2)C[C@H]1C` [B177, Propyl (R)-4-(4-chloro-2-(6-methylpyridin-3-yl)quinoline-7-carbonyl)-2-methylpiperazine-1-carboxylate] was 360 nM.
On to `CCCOC(=O)N1CCN(C(=O)c2ccc3c(Cl)cc(-c4ccc(C(=O)OC)nc4)nc3c2)C[C@H]1C` [B178, Propyl (R)-4-(4-chloro-2-(6-(methoxycarbonyl)pyridin-3-yl)quinoline-7-carbonyl)-2-methylpiperazine-1-carboxylate], for which the IC50 is 930 nM.
In the case of `CCCOC(=O)N1CCN(C(=O)c2ccc3c(Cl)cc(-c4cnn(C)c4)nc3c2)CC1` [B179, Propyl 4-(4-chloro-2-(1-methyl-1H-pyrazol-4-yl)quinoline-7-carbonyl)piperazine-1-carboxylate] it was 250 nM; in that of `CCCOC(=O)N1CCN(C(=O)c2ccc3c(Cl)cc(-c4ccc(F)c(N)c4)nc3c2)CC1` [B180, Propyl 4-(2-(3-amino-4-fluorophenyl)-4-chloroquinoline-7-carbonyl)piperazine-1-carboxylate], 250 nM; in that of `CCCOC(=O)N1CCN(C(=O)c2ccc3c(Cl)cc(-c4ccc(O)c(OCC)c4)nc3c2)CC1` [B181, Propyl 4-(4-chloro-2-(3-ethoxy-4-hydroxyphenyl)quinoline-7-carbonyl)piperazine-1-carboxylate], 290 nM.
The value for `CCCOC(=O)N1CCN(C(=O)c2ccc3c(Cl)cc(-c4ccc(O)c(CO)c4)nc3c2)C[C@@H]1C` [B182, Propyl (S)-4-(4-chloro-2-(4-hydroxy-3-(hydroxymethyl)phenyl)quinoline-7-carbonyl)-2-methylpiperazine-1-carboxylate] was 140 nM; that for `CCCOC(=O)N1CCN(C(=O)c2ccc3c(Cl)cc(-c4ccc5c(c4)ncn5C)nc3c2)CC1` [B183, Propyl 4-(4-chloro-2-(1-methyl-1H-benzo[d]imidazol-5-yl)quinoline-7-carbonyl)piperazine-1-carboxylate] was 120 nM.
As for `CCCOC(=O)N1CCN(C(=O)c2ccc3c(Cl)cc(-c4ccc5[nH]c(O)nc5c4)nc3c2)CC1` [B184, Propyl 4-(4-chloro-2-(2-hydroxy-1H-benzo[d]imidazol-5-yl)quinoline-7-carbonyl)piperazine-1-carboxylate], the IC50 is 100 nM.
In the case of `CCCOC(=O)N1CCN(C(=O)c2ccc3c(Cl)cc(-c4cnc(N)nc4)nc3c2)CC1` [B185, Propyl 4-(2-(2-aminopyrimidin-5-yl)-4-chloroquinoline-7-carbonyl)piperazine-1-carboxylate] it was 870 nM.
